Assay results as given in patent US10844057B2, “Process for preparing JAK inhibitors and intermediates thereof” (priority 2018, dated 2020).

Key:
JAK3 = JAK3 (Homo sapiens (Human), UniProt P52333); assay: Biochemical JAK kinase assay (LanthaScreen), JAK3; conditions: converted from pIC50 using Cheng-Prusoff; ATP 1.6 μM
Description: (§1) Assay 1: Biochemical JAK Kinase Assays
(§2) A panel of four LanthaScreen JAK biochemical assays (JAK1, 2, 3 and Tyk2) were carried in a common kinase reaction buffer (50 mM HEPES, pH 7.5, 0.01% Brij-35, 10 mM MgCl2, and 1 mM EGTA). Recombinant GST-tagged JAK enzymes and a GFP-tagged STAT1 peptide substrate were obtained from Life Technologies.
(§3) Serially diluted compounds were pre-incubated with each of the four JAK enzymes and the substrate in white 384-well microplates (Corning) at ambient temperature for 1 h. ATP was subsequently added to initiate the kinase reactions in 10 μL total volume, with 1% DMSO. […] Kinase reactions were allowed to proceed for 1 hour at ambient temperature before a 10 μL preparation of EDTA (10 mM final concentration) and Tb-anti-pSTAT1 (pTyr701) antibody (Life Technologies, 2 nM final concentration) in TR-FRET dilution buffer (Life Technologies) was added. The plates were allowed to incubate at ambient temperature for 1 h before being read on the EnVision reader (Perkin Elmer). Emission ratio signals (520 nm/495 nm) were recorded and utilized to calculate the percent inhibition values based on DMSO and background controls.
(§4) For dose-response analysis, percent inhibition data were plotted vs. compound concentrations, and IC50 values were determined from a 4-parameter robust fit model with the Prism software (GraphPad Software). Results were expressed as pIC50 (negative logarithm of IC50) and subsequently converted to pKi (negative logarithm of dissociation constant, Ki) using the Cheng-Prusoff equation.

[1] = system: IL-2 stimulated STAT5 phosphorylation in Tall-1 human T cell line; assay: Inhibition of IL-2 stimulated pSTAT5 in Tall-1 T cells; type: cell-based; conditions: IL-2 300 ng/mL, pSTAT5 AlphaLisa, Tall-1 cells, read-out: Tall-1 pIC50 (converted)
Description: Assay 2: Inhibition of IL-2 Stimulated pSTAT5 in Tall-1 T Cells
The potency of test compounds for inhibition of interleukin-2 (IL-2) stimulated STAT5 phosphorylation was measured in the Tall-1 human T cell line (DSMZ) using AlphaLisa.
Phosphorylated STAT5 was measured via the AlphaLISA SureFire Ultra pSTAT5 (Tyr694/699) kit (PerkinElmer).
Compounds were serially diluted in DMSO and dispensed acoustically to empty wells. Assay media (phenol red-free DMEM (Life Technologies) supplemented with 10% FBS (ATCC)) was dispensed (4 μL/well) and plates shaken at 900 rpm for 10 mins. Cells were seeded at 45,000 cells/well in assay media (4 μL/well), and incubated at 37° C., 5% CO2 for 1 hour, followed by the addition of IL-2 (R&D Systems; final concentration 300 ng/mL) in pre-warmed assay media (4 μL) for 30 minutes. […] The lysate was shaken at 900 rpm for 10 minutes at room temperature (RT). Phosphorylated STAT5 was measured via the pSTAT5 AlphaLisa kit (PerkinElmer). Freshly prepared acceptor bead mixture was dispensed onto lysate (5 μL) under green filtered <100 lux light. Plates were shaken at 900 rpm for 2 mins, briefly spun down, and incubated for 2 hrs at RT in the dark. Donor beads were dispensed (5 μL) under green filtered <100 lux light. Plates were shaken at 900 rpm for 2 minutes, briefly spun down, and incubated overnight at RT in the dark. Luminescence was measured with excitation at 689 nm and emission at 570 nm using an EnVision plate reader (PerkinElmer) under green filtered <100 lux light.
To determine the inhibitory potency of test compounds in response to IL-2, the average emission intensity of beads bound to pSTAT5 was measured in a human T cell line. IC50 values were determined from analysis of the inhibition curves of signal intensity versus compound concentration. Data are expressed as pIC50 (negative decadic logarithm IC50) values (mean±standard deviation).

JAK1 = JAK1 (Homo sapiens (Human), UniProt P23458); assay: Biochemical JAK kinase assay (LanthaScreen), JAK1; conditions: converted from pIC50 using Cheng-Prusoff; ATP 25 μM
Description: as §1, §2, §3, §4

Tyk2 = Tyk2 (Homo sapiens (Human), UniProt P29597); assay: Biochemical JAK kinase assay (LanthaScreen), Tyk2; conditions: converted from pIC50 using Cheng-Prusoff; ATP 10 μM
Description: as §1, §2, §3, §4

Chain of JAK1 (P23458 whole entry): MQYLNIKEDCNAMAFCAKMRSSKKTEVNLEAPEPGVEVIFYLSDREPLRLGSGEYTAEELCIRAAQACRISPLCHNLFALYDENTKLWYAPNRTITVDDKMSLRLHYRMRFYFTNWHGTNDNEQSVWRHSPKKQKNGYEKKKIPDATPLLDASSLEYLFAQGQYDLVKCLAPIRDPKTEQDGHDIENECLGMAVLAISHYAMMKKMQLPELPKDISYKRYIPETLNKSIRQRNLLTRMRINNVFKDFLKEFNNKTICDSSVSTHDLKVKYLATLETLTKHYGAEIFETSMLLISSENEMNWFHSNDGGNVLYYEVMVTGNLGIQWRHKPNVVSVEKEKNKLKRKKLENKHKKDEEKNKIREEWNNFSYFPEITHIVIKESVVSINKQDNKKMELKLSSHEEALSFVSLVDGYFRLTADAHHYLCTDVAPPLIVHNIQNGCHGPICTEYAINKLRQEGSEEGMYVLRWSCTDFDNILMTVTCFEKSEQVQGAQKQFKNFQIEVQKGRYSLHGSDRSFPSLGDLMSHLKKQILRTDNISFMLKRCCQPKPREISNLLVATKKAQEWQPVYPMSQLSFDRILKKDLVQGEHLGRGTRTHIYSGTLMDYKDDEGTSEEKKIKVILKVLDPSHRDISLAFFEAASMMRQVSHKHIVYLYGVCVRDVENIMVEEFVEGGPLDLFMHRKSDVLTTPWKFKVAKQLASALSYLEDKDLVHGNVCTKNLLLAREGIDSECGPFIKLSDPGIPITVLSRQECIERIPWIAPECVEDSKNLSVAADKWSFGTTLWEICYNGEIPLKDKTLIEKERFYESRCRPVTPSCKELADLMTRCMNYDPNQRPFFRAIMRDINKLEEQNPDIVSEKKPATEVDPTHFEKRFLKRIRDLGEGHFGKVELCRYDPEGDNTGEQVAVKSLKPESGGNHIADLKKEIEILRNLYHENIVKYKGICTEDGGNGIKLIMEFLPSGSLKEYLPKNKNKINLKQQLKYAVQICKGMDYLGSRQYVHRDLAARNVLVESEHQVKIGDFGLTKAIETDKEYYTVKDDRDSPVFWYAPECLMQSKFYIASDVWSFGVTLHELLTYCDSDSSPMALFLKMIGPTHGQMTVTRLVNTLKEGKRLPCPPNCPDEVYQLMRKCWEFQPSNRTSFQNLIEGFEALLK
Chain of JAK3 (P52333 whole entry): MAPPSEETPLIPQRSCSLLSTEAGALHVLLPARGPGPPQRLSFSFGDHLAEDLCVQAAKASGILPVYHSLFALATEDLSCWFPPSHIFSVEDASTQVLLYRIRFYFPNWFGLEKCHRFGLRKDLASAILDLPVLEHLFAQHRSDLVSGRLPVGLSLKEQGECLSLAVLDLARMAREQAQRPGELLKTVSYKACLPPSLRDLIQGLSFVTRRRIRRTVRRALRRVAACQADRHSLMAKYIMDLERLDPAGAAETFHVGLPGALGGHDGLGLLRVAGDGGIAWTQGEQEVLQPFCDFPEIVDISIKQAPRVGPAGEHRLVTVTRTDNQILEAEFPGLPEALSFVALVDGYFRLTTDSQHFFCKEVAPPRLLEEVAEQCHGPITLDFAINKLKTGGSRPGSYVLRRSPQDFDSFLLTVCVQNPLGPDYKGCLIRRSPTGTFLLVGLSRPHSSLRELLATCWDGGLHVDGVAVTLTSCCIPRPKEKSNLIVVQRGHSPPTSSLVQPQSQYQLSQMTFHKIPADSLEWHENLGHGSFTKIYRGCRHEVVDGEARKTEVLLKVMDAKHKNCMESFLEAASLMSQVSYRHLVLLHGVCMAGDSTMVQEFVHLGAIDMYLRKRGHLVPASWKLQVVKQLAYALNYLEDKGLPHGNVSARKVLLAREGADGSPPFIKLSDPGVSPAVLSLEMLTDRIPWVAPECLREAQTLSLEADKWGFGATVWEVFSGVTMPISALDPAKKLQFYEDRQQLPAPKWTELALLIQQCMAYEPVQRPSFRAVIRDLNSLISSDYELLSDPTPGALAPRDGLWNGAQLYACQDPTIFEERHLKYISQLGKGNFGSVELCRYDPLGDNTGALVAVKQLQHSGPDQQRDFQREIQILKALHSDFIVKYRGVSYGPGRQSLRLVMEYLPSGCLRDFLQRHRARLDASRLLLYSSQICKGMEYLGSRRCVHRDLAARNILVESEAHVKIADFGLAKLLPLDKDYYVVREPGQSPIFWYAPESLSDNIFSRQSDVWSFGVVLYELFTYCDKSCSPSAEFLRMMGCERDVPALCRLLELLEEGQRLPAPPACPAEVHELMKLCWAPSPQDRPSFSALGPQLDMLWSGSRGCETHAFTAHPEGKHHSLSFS
Chain of Tyk2 (P29597 whole entry): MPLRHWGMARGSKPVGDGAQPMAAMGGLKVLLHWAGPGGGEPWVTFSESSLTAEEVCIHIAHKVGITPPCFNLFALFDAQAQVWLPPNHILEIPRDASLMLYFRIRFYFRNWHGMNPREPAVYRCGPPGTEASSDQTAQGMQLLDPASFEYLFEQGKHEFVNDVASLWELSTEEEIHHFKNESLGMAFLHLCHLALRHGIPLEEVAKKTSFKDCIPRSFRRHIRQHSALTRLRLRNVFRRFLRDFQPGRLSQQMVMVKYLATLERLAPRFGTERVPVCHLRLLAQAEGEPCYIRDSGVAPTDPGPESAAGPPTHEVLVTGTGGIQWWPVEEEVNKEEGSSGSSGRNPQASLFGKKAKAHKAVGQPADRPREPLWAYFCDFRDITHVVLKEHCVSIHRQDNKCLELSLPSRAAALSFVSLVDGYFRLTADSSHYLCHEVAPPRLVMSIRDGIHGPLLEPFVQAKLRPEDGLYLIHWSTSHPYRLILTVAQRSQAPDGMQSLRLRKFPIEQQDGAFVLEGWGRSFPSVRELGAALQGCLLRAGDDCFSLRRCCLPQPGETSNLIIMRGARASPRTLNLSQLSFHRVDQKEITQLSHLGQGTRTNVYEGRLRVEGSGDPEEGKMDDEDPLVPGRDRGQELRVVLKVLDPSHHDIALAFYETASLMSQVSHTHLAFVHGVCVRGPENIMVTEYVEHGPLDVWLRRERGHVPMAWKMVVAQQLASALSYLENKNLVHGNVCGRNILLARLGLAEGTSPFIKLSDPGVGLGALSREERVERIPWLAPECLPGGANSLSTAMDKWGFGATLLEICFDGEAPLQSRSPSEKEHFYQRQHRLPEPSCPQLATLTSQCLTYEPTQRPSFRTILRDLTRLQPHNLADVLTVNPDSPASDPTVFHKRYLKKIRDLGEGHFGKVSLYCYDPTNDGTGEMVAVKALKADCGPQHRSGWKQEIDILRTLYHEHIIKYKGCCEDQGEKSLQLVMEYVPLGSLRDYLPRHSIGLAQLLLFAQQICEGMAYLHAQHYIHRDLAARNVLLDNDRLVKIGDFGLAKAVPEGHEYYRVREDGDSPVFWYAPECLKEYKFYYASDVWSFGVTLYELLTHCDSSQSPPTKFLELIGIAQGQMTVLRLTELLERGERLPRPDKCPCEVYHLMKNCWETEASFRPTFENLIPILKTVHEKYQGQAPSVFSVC

CCc1cc(O)c(F)cc1-c1ccc2c(-c3nc4c([nH]3)CN(C(C)C)[C@H](C(=O)N3CC(N(C)C)C3)C4)n[nH]c2c1 [Example 8, (S)-(3-(dimethylamino)azetidin-1-yl)(2-(6-(2-ethyl-5-fluoro-4-hydroxyphenyl)-1H-indazol-3-yl)-5-isopropyl-4,5,6,7-tetrahydro-3H-imidazo[4,5-c]pyridin-6-yl)methanone]
JAK3 pKi (JAK3): 10.1 | IC50 [1]: 1.58 nM | JAK1 pKi (JAK1): 10.4 | Tyk2 pKi (Tyk2): 9.5
